Data: patent US10287292B2, “CXCR7 antagonists” (CHEMOCENTRYX, INC., priority 2012, dated 2019)

Target: CXCR7 receptor (Homo sapiens (Human), UniProt P25106)
Experiment: Serum Binding Analysis: displacement of 125I-labeled SDF-1 from CXCR7 in 100% human serum
Details: 125I SDF-1 displacement in 100% human serum, MCF-7 and/or MDA-MB-435S CXCR7 transfected cells, 3 hrs at 4° C.; read-out: Avg Ser IC50
Method: The compounds were combined with cells expressing the CXCR7 receptor (e.g., MCF cells or cells transfected to express CXCR7) in the presence of the 125 I-labeled SDF-1 chemokine as detailed in Determination of IC50 values. Reagents and Cells (see below). The ability of the compounds to displace the labeled chemokine from the CXCR7 receptor sites at multiple concentrations was then determined with the screening process.
In Table 1, Avg Bind IC50 refers to the Buffer Binding Analysis described below, while Avg Ser IC50 refers to the Serum Binding Analysis described below. All compounds were prepared as described in the Examples above, or by related methods substituting readily available starting materials.
^125I-labeled SDF-1 was purchased from Perkin-Elmer Life Sciences, Inc. (Boston, Mass.). The MCF-7 (adenocarcinoma; mammary gland) cell line was obtained from the American Type Culture Collection (ATCC, Manassas, Va.) or and was cultured in DMEM (Mediatech, Herndon, Va.) supplemented with 10% fetal bovine serum (FBS) (HyClone Logan, Utah) and bovine insulin (0.01 mg/mL) (Sigma. St. Louis, Mo.) at 37° C. in a humidified incubator at a 5% CO2/air mixture. CXCR7 transfected MDA-MB-435S were produced as described below. MDA-MB-435S human breast cancer line, was purchased from ATCC, and cultured in DMEM/10% FBS medium. The complete coding sequence of the gene encoding CXCR7 (a.k.a. CCXCKR2, hRDC1), was isolated from MCF-7 cells using μMACs mRNA isolation kit (Miltenyi Biotec, Auburn, Calif.). DNA contamination was removed by DNase digestion via RNeasy columns (Qiagen, Inc., Valencia, Calif.) and cDNA was generated using GeneAmp RNA PCR Core Kit (Applied Biosystems, Foster City. Calif.). PCR of cDNA samples was performed using Taq PCR Master Mix kit (Qiagen. Inc.) and hRDC1 primers harboring 5′ and 3′ Not I sites (hRDC1F 5′ […]-3, hRDC1R 5′-[…]-3′) Not I digested PCR product was ligated into Not I digested pcDNA3.1(+)(Invitrogen, Carlsbad, Calif.) and screened for orientation and sequence confirmed. Plasmid DNA was then isolated from overnight bacterial cultures by Maxiprep (Qiagen, Inc.). Plasmid DNA (10 μg) was added to MDA-MB-435s cells and cells were electroporated (0.22 kV, 960 uF) via Gene Pulser (Biorad laboratories, Hercules, Calif.). 48 hr post-electroporation, cells were transferred to selection medium (600 ug/ml G418).
In order to more properly assess the binding efficacy of the compounds, radioligand binding assays were carried out in the presence of 100% human serum to more accurately reflect the in vivo environment. […] Target compounds were tested to determine their ability to bind with CXCR7 sites on MCF-7 and/or MDA-MB-435S CXCR7 transfected cells. Efficiency-maxim/zed radioligand binding using filtration protocols as described in Dairaghi D J, et al., HHV8-encoded vMIP-I selectively engages chemokine receptor CCR5. Agonist and antagonist profiles of viral chemokines., J. Biol. Chem. 1999 Jul. 30; 274(31): 21569-74 and Gosling J, et al., Cutting edge: identification of a novel chemokine receptor that binds dendritic cell- and T cell-active chemokines including ELC, SLC, and TECK, J. Immunol. 2000 Mar. 15; 164(6):2851-6 was used.
In these assays, MCF-7 and/or MDA-MB-435S cells were interrogated with the target compounds and the ability of these compounds to displace 125 I radiolabeled SDF-1 was assessed using the protocol described in Dairaghi and Gosling. The target compounds were added to the plate to the indicated concentration followed by addition of cells and radiolabeled chemokine (125I SDF-1), both in the following medium (human AB serum with 10 mM HEPES added to stabilize at pH 7.4). All assays were then incubated for 3 hrs at 4° C. with gentle agitation.

CXCR7 receptor, sequence (P25106 whole entry): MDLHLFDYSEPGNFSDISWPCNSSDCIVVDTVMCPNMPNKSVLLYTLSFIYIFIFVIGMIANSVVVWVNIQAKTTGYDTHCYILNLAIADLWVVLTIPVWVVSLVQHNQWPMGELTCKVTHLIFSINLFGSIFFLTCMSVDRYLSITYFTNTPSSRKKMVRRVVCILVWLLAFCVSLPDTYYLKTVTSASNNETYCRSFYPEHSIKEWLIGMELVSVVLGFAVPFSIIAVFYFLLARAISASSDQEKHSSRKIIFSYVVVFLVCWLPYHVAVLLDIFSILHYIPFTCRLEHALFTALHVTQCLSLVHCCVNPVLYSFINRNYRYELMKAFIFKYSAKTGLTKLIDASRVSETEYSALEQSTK

| SMILES | IC50 |
| --- | --- |
| Cc1nc(C(=O)N[C@H]2CCN(c3nccn4ccnc34)C2)nn1-c1ccc(F)cc1 [Compound 1.001] | ≤ 500 nM |
| N#Cc1ccc(-n2cnc(C(=O)N[C@H]3CCN(c4nccn5ccnc45)C3)n2)cc1 [Compound 1.002] | 2500 to 15000 nM |
| O=C(N[C@H]1CCN(c2nccn3cccc23)C1)c1ncn(-c2ccc(F)cc2)n1 [Compound 1.003] | ≤ 500 nM |
| CC(C)c1cn2cccc2c(N2CC[C@H](NC(=O)c3ncn(-c4ccccc4)n3)C2)n1 [Compound 1.008] | 500 to 2500 nM |
| O=C(N[C@@H]1CCN(c2nccn3ccnc23)C1)c1ncn(-c2ccc(F)cc2)n1 [Compound 1.010] | 500 to 2500 nM |
| O=C(N[C@H]1CCN(c2nccn3ccnc23)C1)c1ccc(N2CCC(O)CC2)nn1 [Compound 1.011] | 2500 to 15000 nM |
| CCc1cn2cccc2c(N2CC[C@H](NC(=O)c3csc(N4CCC(O)CC4)n3)C2)n1 [Compound 1.012] | ≤ 500 nM |
| CCc1cn2cccc2c(N2CC[C@H](NC(=O)c3ncn(-c4ccc(F)cc4)n3)C2)n1 [Compound 1.013] | ≤ 500 nM |
| O=C(N[C@H]1CCN(c2nccn3ccnc23)C1)c1ncn(-c2ccc(F)c(F)c2)n1 [Compound 1.014] | ≤ 500 nM |
| O=C(N[C@H]1CCN(c2nccn3ccnc23)C1)c1ncn(-c2cccc(F)c2)n1 [Compound 1.016] | ≤ 500 nM |
| Cc1ccc2nc(C(=O)N[C@H]3CCN(c4nc(C)cn5cccc45)C3)ncc2c1 [Compound 1.019] | ≤ 500 nM |
| Cc1cn2cccc2c(N2CC[C@H](NC(=O)c3noc(-c4ccccc4)n3)C2)n1 [Compound 1.021] | ≤ 500 nM |
| Cc1cn2cccc2c(N2CC[C@H](NC(=O)c3ncn(-c4ccc(Cl)cc4)n3)C2)n1 [Compound 1.022] | ≤ 500 nM |
| Cc1cn2cccc2c(N2CC[C@H](NC(=O)c3csc(N4CCCC4)n3)C2)n1 [Compound 1.025] | ≤ 500 nM |
| Cc1cn2cccc2c(N2CC[C@H](NC(=O)c3ccn(-c4ccc(Cl)cc4)n3)C2)n1 [Compound 1.029] | ≤ 500 nM |
| Cc1cn2ccnc2c(N2CC[C@H](NC(=O)c3ncn(-c4ccccc4)n3)C2)n1 [Compound 1.032] | ≤ 500 nM |

| SMILES | IC50 |
| --- | --- |
| O=C(N[C@H]1CCN(c2nccn3cnnc23)C1)c1cn(-c2ccccc2)cn1 [Compound 1.035] | ≤ 500 nM |
| O=C(N[C@H]1CCN(c2nccn3ccnc23)C1)c1cn(-c2ccccc2)cn1 [Compound 1.036] | ≤ 500 nM |
| Cc1cn2cccc2c(N2CC[C@H](NC(=O)c3csc(N4CCC(O)CC4)n3)C2)n1 [Compound 1.037] | ≤ 500 nM |
| O=C(N[C@H]1CCN(c2nccn3cccc23)C1)c1csc(N2CCCC2)n1 [Compound 1.038] | ≤ 500 nM |
| Cc1cn2cccc2c(N2CC[C@H](NC(=O)c3ncn(-c4ccccc4)n3)C2)n1 [Compound 1.040] | ≤ 500 nM |
| Cc1cn2cccc2c(N2CC[C@H](NC(=O)c3ccn(-c4ccc(F)cc4)n3)C2)n1 [Compound 1.041] | ≤ 500 nM |
| Cc1ccc2nc(C(=O)N[C@H]3CCN(c4nccn5cnnc45)C3)ncc2c1 [Compound 1.044] | ≤ 500 nM |
| CN(C)c1cnc(C(=O)N[C@H]2CCN(c3nccn4cccc34)C2)cn1 [Compound 1.049] | ≤ 500 nM |
| O=C(NC1(CO)CCN(c2nccn3ccnc23)C1)c1ncn(-c2ccccc2)n1 (stereo not shown) [Compound 1.050] | ≤ 500 nM |
| O=C(NC1(CO)CCN(c2nccn3cccc23)C1)c1ncn(-c2ccccc2)n1 (stereo not shown) [Compound 1.051] | ≤ 500 nM |
| O=C(N[C@H]1CCN(c2nccn3cccc23)C1)c1ncc2cc(Cl)ccc2n1 [Compound 1.053] | ≤ 500 nM |
| Cc1ccccc1-n1ccc(C(=O)N[C@H]2CCN(c3nccn4cnnc34)C2)n1 [Compound 1.054] | ≤ 500 nM |
| O=C(NC1(CO)CCN(c2nccn3ccnc23)C1)c1csc(N2CCC(O)CC2)n1 (stereo not shown) [Compound 1.058] | ≤ 500 nM |
| O=C(NC1(CO)CCN(c2nccn3ccnc23)C1)c1ccn(-c2ccc(F)cc2)n1 (stereo not shown) [Compound 1.059] | ≤ 500 nM |
| CC(C)c1cnc(C(=O)NC2(CO)CCN(c3nccn4cccc34)C2)nc1 (stereo not shown) [Compound 1.060] | ≤ 500 nM |

Second part, the compound after the results:

| IC50 | SMILES |
| --- | --- |
| 500 to 2500 nM | Cc1ccc(-n2cnc(C(=O)N[C@H]3CCN(c4nccn5ccnc45)C3)n2)cc1 [Compound 1.004] |
| 2500 to 15000 nM | CS(=O)(=O)c1ccc(-n2cnc(C(=O)N[C@H]3CCN(c4nccn5ccnc45)C3)n2)cc1 [Compound 1.005] |
| ≤ 500 nM | O=C(N[C@H]1CCN(c2nccn3ccnc23)C1)c1ncn(-c2ccccc2F)n1 [Compound 1.006] |
| 500 to 2500 nM | CC(C)c1cn2cccc2c(N2CC[C@H](NC(=O)c3ncn(-c4ccc(F)cc4)n3)C2)n1 [Compound 1.007] |
| ≤ 500 nM | CC(C)c1cn2cccc2c(N2CC[C@H](NC(=O)c3csc(N4CCC(O)CC4)n3)C2)n1 [Compound 1.009] |
| ≤ 500 nM | CCc1cn2cccc2c(N2CC[C@H](NC(=O)c3ncn(-c4ccccc4)n3)C2)n1 [Compound 1.015] |
| ≤ 500 nM | O=C(N[C@H]1CCN(c2nccn3cccc23)C1)c1cn(-c2ccccc2)nn1 [Compound 1.017] |
| 2500 to 15000 nM | O=C(N[C@H]1CCN(c2nccn3nccc23)C1)c1ncn(-c2ccccc2)n1 [Compound 1.018] |
| ≤ 500 nM | Cc1cn2cccc2c(N2CC[C@H](NC(=O)c3ncn(-c4ccc(F)cc4)n3)C2)n1 [Compound 1.020] |
| ≤ 500 nM | Cc1cn2cccc2c(N2CC[C@H](NC(=O)c3csc(-c4ccccc4)n3)C2)n1 [Compound 1.023] |
| ≤ 500 nM | Cc1cn2cccc2c(N2CC[C@H](NC(=O)c3coc(-c4ccccc4)n3)C2)n1 [Compound 1.024] |
| ≤ 500 nM | O=C(N[C@H]1CCN(c2nccn3ccnc23)C1)c1csc(N2CCC2)n1 [Compound 1.026] |
| ≤ 500 nM | O=C(N[C@H]1CCN(c2nccn3cccc23)C1)c1ncc(C2CCCC2)cn1 [Compound 1.028] |
| ≤ 500 nM | Cc1cn2cccc2c(N2CC[C@H](NC(=O)c3cn(-c4ccccc4)cn3)C2)n1 [Compound 1.030] |
| ≤ 500 nM | Cc1cn2ccnc2c(N2CC[C@H](NC(=O)c3cn(-c4ccccc4)cn3)C2)n1 [Compound 1.031] |
| 500 to 2500 nM | CC(O)c1cnc(C(=O)N[C@H]2CCN(c3nccn4cccc34)C2)nc1 (stereo partly shown) [Compound 1.033] |
| ≤ 500 nM | O=C(N[C@H]1CCN(c2nccn3ccnc23)C1)c1csc(N2CCCC2)n1 [Compound 1.034] |
| ≤ 500 nM | O=C(N[C@H]1CCN(c2nccn3cccc23)C1)c1cn(-c2ccccc2)cn1 [Compound 1.039] |
| ≤ 500 nM | NC(=O)C1(NC(=O)c2ccn(-c3ccc(F)cc3)n2)CCN(c2nccn3cccc23)C1 (stereo not shown) [Compound 1.042] |
| 2500 to 15000 nM | O=C(NC1(C(=O)O)CCN(c2nccn3cccc23)C1)c1ccn(-c2ccc(F)cc2)n1 (stereo not shown) [Compound 1.043] |
| ≤ 500 nM | Cc1ccccc1-c1nc(C(=O)N[C@H]2CCN(c3nccn4ccnc34)C2)cs1 [Compound 1.045] |
| ≤ 500 nM | Cc1ccccc1-c1nc(C(=O)N[C@H]2CCN(c3nccn4cccc34)C2)cs1 [Compound 1.046] |
| ≤ 500 nM | Cc1ccc2nc(C(=O)N[C@H]3CCN(c4nccn5ccnc45)C3)ncc2c1 [Compound 1.048] |
| ≤ 500 nM | O=C(N[C@H]1CCN(c2nccn3cccc23)C1)c1cnc(C2CC2)cn1 [Compound 1.052] |
| ≤ 500 nM | CC1(O)CCN(c2nc(C(=O)N[C@H]3CCN(c4nccn5cccc45)C3)cs2)CC1 [Compound 1.055] |
| 500 to 2500 nM | CC1(O)CCN(c2nc(C(=O)N[C@H]3CCN(c4nccn5ccnc45)C3)cs2)CC1 [Compound 1.056] |
| ≤ 500 nM | Cc1ccccc1-n1ccc(C(=O)N[C@H]2CCN(c3nccn4ccnc34)C2)n1 [Compound 1.057] |
